Common to all, as to format: in vivo
In test [1] the test system is larval zebrafish. Put plainly: Ketanserin bath application with or without psilocybin, independent component analysis of swim patterns. The conditions noted are these: Ketanserin 11.25 μM for 5 hours. On the procedure:
The right panel of FIG. 4M depicts latent feature (e.g., independent component) analysis of swim patterns after the sham treatment, Ketanserin exposure and psilocybin pretreatment before Ketanserin exposure;
Ketanserin has acute anxiogenic effects in adult zebrafish and rodents.
For Ketanserin experiments (FIG. 4M), the inventors performed a bath application of Ketanserin (11.25 μM) for 5 hours before behavioral tests. Psilocybin (2.5 μM) was added to the solution 1 hour after the start of Ketanserin treatment for a total duration of 4 hours before behavioral tests. Ketanserin (Sigma, S006) was prepared as a 0.5 mg/mL stock solution in E3 medium. Stock solutions were stored at −80° C. for long-term storage, and in-use aliquots were stored at −20° C. The desired concentration of Ketanserin was achieved by adding the stock solution to the E3 medium in which the fish swim.
(§1) For Independent Component Analysis (ICA) (FIGS. 2D, 3G, 4D, 4K and 4L), The inventors identified ICA weights and normalization factors in the dataset of 14,694 swimming episodes from N=22 fish for the small arena and N=20 fish for the large arena (FIG. 1) by using FastICA function in scikit-learn package (https://scikit-learn.org). The inventors subsequently applied the same ICA weights and normalization factors to other datasets. […]

Test [2] concerns larval zebrafish. Put plainly: Wide-field behavioral tracking of spontaneous exploration and visually driven swimming after drug bath pretreatment. The conditions noted are these: for effects of pretreatment on swim patterns: fluoxetine 1 μM to 10 μM, fluvoxamine 2.5 μM to 25 μM, 24 hours incubation; for swim patterns and tail motions during visually driven behaviors: fluoxetine- and fluvoxamine-treated fish vs control, FIG. 3K; for spontaneous swimming distance: unstressed fish, ketamine 30 μM bath 30 minutes, fluoxetine 4.6 μM bath 24 hours. The source says: Reference is now made to FIG. 1A, which is a schematic diagram depicting an experimental setup, which may be used for evaluating behavior of an animal, according to some embodiments. […] This setup tracks the precise body kinematics of a single fish in an environment that is large (e.g., 90 mm) compared to the length of larval zebrafish (˜4 mm) at a high-resolution (e.g., higher than 1100×1100 pixels) and high-speed (e.g., 290 Hz). Data analysis pipelines further processed the images to identify the fish loci and body postures by using a deep neural network.
Different swim episodes can be visually separated in the depicted trajectories. Fish behavior was recorded at infrared wavelengths for 15 minutes while visual gratings stopped for 10 seconds (spontaneous swimming) and moved for 10 seconds (visually driven behavior) in cycles.
The inventors have used a custom-built zebrafish tracking system consisting of a high-speed camera, a macro lens and associated locking sleeve, an infrared filter for the lens, 880 nm LED illumination, a 100 mm×120 mm cold mirror, and a compact projector.
The inventors have tested the behavior of AB fish at the age of 5 Days Post Fertilization (DPF) on a chemical watch glass (125 mm) whose bottom surface was manually coated with a white spray. The inventors have imaged an area that spanned 90 mm (corresponding to 1100-1200 pixels) for each dimension with a resolution of […] per pixel at 290 Hz. […] Behavioral data presented in this study were acquired using at least three batches, as depicted in FIGS. 1, 2, 3, 4, 1SD, 2H, 2I, 2J, 3L, 4S, for at least two batches (FIG. 3J).
Until 5 DPF, both control and drug-exposed embryos were reared in 90-mm Petri dishes and maintained in a light-cycled incubator at 28.0° C. Media was changed every other day and no food was given before behavioral experiments. All behavioral experiments in this study were performed in E3 medium after washing out pretreated drugs.
Psilocybin solution (Sigma, P-097) was purchased as a stock solution concentration of 1.0 mg/mL in acetonitrile:water (1:1), ampule of 1 mL (3.52 mM). Stock solutions were stored at −80° C. for long-term storage, and in-use aliquots were stored at −20° C. Aliquots were thawed and vortexed immediately before use. Psilocybin was administered by incubating the fish in the psilocybin solution in 6-well plates. Desired concentrations of psilocybin were achieved by adding the stock solution to the E3 medium in which the fish swim. Concentrations ranging from 1 μM to 50 μM were tested in order to optimize the dosage.
The inventors determined that a dose of 2.5 μM for 4 h had the largest effect on spontaneous swimming compared to controls (refer to FIGS. 3E and 3J). Following the 4-hour exposure, fish were double washed in E3 medium, and remained in E3 medium until their behavior was examined. Behaviors were recorded for 15 minutes per fish.
Fluoxetine hydrochloride (Sigma, F918) was prepared as a 1 mg/ml (2.9 mM) stock solution in a conditioned E3 medium for zebrafish embryos. Fluvoxamine (Sigma, F2802) was prepared as a 10 mg/ml (23 mM) stock solution in a conditioned E3 medium. Desired Fluoxetine and Fluvoxamine concentrations were achieved by diluting the stock solution with conditioned E3 medium and storing the aliquots at −20° C. At 5 DPF, the fish were incubated as follows: Fluoxetine and Fluvoxamine were administered by incubating the fish in the solutions in 6-well plates. Desired concentrations of the two types of SSRIs were achieved by adding the stock solutions to the E3 medium in which the fish swim. Concentrations ranging from 1 μM to 10 μM for Fluoxetine and 2.5 μM to 25 μM for Fluvoxamine were tested in order to optimize the dosage. After 24 hours of incubation the fish, after being triple washed, were transferred to a new Petri dish, similar to the one they dwelled in before, containing only E3 medium. Behaviors were recorded at 6 DPF for 15 minutes per fish. […]

Test [3] has as its system larval zebrafish. As to the kind of experiment: Acute cold stress exposure (28° C. to 18° C., 5 minutes) after drug pretreatment, swim pattern analysis. The conditions noted are these: for stress-induced increase in swimming distance: cold shock, fluoxetine 4.6 μM 24 hours before; for stress-induced shift along the ICA2 (IC2) axis, turning/escape behavior: psilocybin 2.5 μM, ketamine 30 μM, fluoxetine 4.6 μM.
Source text: As known in the art, acute administration of psilocybin has anxiolytic effects in humans. The inventors have thus tested whether acute stress exposure causes changes in fish's swim patterns in our setup and whether psilocybin can prevent such stress-induced behavioral changes. Various environmental stressors have been tested in larval zebrafish that trigger cortisol increase, including hypertonic water, acids, mechanical disturbance, social isolation, and heating or cooling shock.
As shown in FIG. 4I-E, the inventors also tested the effect of hypertonic stress for comparison.
The behavioral effects of other antidepressants was investigated and compared with those of psilocybin. Initially, the effect of ketamine was tested. Ketamine is a fast-acting antidepressant that can also suppress stress-induced behavioral changes in zebrafish. Sub-anesthetic concentration (30 μM) were used and bath application were performed for 30 minutes before the cold shock (FIG. 5A).
The effect of fluoxetine was also tested in the cold shock paradigm, using a concentration of 4.6 μM from previous zebrafish studies, and the effect of bath application was examined for 24 hours before the cold shock (FIG. 5D). […] However, fluoxetine had mixed effects on body kinematics after stress exposure. […] These mixed effects may be due to the induction of distorted swim patterns by fluoxetine that were observed (FIG. 5F, FIG. S3C) but also may reflect its lack of acute anxiolytic effects in humans.
The inventors classified the effects of psilocybin, ketamine and fluoxetine based on two behavioral measures: changes in swimming distances (FIG. 5G) and the ICA analysis of body kinematics (FIG. 5H). In the first type of classification (FIG. 5G), the action of tested drugs was classified based solely on swimming distances. […] Anxiolytic effects were calculated based on how much the drugs could revert the increase of swimming distance induced by stress exposure. In the second type of classification (FIG. 5H), two dimensions identified by the ICA analysis of body kinematics were used. […] Anxiolytic effects were calculated based on how much the drugs could revert the changes along the IC2 axis induced by stress exposure.
Just as osmotic changes to the water cause stress to the fish, changes in water temperature are also known to induce stress. Zebrafish's optimal environment is approximately 28° C., and so it has been shown that a short exposure of 5 minutes to 18° C. leads to increased cortisol levels and anxiety-like behaviors in larval zebrafish. Thus, the inventors utilized this established stress paradigm and exposed the fish to 18° C. E3 medium for 5 minutes. The inventors subsequently returned the fish to 28° C. E3 for a 5-minute recovery before testing (FIG. 4A). 18° C. E3 was achieved by mixing 4° C. E3 with 28° C. E3. Over the course of the 5-minute cold stimulus, the water temperature on average ranged from 18° C. to 20° C. The recovery in 28° C. E3 was done in an incubator, thus the temperature remained stable. Note that these procedures involve multiple occasions of transferring fish and replacing liquid around the fish, which themselves cause stress response due to mechanical disturbances. The effect of such procedural stress was present as the shifts of behavioral states along the IC2 axis in the data presented in FIGS. 4 and S4 compared to other datasets.
as §1

Where [4] appears, read: cold stress, classification of psilocybin, ketamine and fluoxetine.

Molecules are shown by their SMILES. Where a name gives a salt, the structure may show the parent alone.

For the molecule `O=C(c1ccc(F)cc1)C1CCN(CCn2c(=O)[nH]c3ccccc3c2=O)CC1` [Ketanserin], the “shift of behavioral states by bath application” value in test [1] was “shifted behavioral states similarly to both cold and hypertonic stressors”.

With `COCCCC/C(=N\OCCN)c1ccc(C(F)(F)F)cc1` [fluvoxamine, Fluvoxamine], in test [2], the “effects of pretreatment on swim patterns” value was “suppressive effects”; the “swim patterns and tail motions during visually driven behaviors” value is reported as “decrease amplitude of tail motions”.

Take `CNCCC(Oc1ccc(C(F)(F)F)cc1)c1ccccc1` (centres unmarked) [fluoxetine, Fluoxetine hydrochloride]: in test [2], the “effects of pretreatment on swim patterns” value is listed as “suppressive effects”; the “swim patterns and tail motions during visually driven behaviors” value was “noticeable distortions in the swim patterns and low-frequency tail motions”; the spontaneous swimming distance entry was “did not increase”. The “stimulatory/suppressive effects on basal behavior” value in test [2] (unstressed fish vs control, swimming distance and IC1 axis classifications consistent (FIG. 5G, 5H)) is recorded as “suppressive”. In test [3] (ketamine 30 μM 30 minutes), the “stress-induced increase in swimming distance” value is given as “reversed”. For the same molecule, in test [3] (setting [4]), the “reversal of the stress-induced increases in swim distances (FIG. 5G)” value was “only occurred with ketamine and fluoxetine”. Also, in test [3] (cold stress), the “stress-induced shift along the ICA2 (IC2) axis, turning/escape behavior” value was “partially reversed and partially exacerbated”.

`CNC1(c2ccccc2Cl)CCCCC1=O` (centres unmarked) [ketamine]: the spontaneous swimming distance result in test [2] is given as “did not increase”. Also, the “stress-induced increase in swimming distance” value in test [3] (ketamine 30 μM 30 minutes) is on record as “reversed”. Further, the “reversal of the stress-induced changes in body kinematics (FIG. 5H)” value in test [3] (cold stress, IC2 axis, classification of psilocybin, ketamine and fluoxetine) was “only occurred with ketamine and psilocybin”. The “reversal of the stress-induced increases in swim distances (FIG. 5G)” value in test [3] (setting [4]) is “only occurred with ketamine and fluoxetine”. In addition, the “stress-induced changes in swim patterns (zig-zag vs straight) during visually driven swimming” value in test [3] (cold stress, psilocybin 2.5 μM pretreatment, ketamine 30 μM 30 minutes) was “prevented the emergence of zig-zag swim patterns after cold shock and recovered straight swim patterns”. In test [3] (cold stress), the “stress-induced shift along the ICA2 (IC2) axis, turning/escape behavior” value is “significantly reversed”.

On to `CN(C)CCc1c[nH]c2cccc(OP(=O)(O)O)c12` [psilocybin, Psilocybin], for which, in test [2] (tested 1 μM to 50 μM, 30 minutes to 24 hours, optimal duration 4 h), the “most effective concentration for enhancing spontaneous exploration” value amounted to 2.5 µM.

Values taken from patent US20260038304A1, “METHOD AND SYSTEM FOR DETERMINING EFFICACY OF TREATMENT BY A PRE[…]” (priority 2023, published 2026).
